Results: ChEMBL document CHEMBL1201862, “PubChem BioAssay data set” (2004)
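Briefly, cells in 96-well plates were exposed to five compound concentrations for 48 h, and endpoints were estimated by linear interpolation. GI50 = concentration required for 50% inhibition of growth.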 The source made the active and inactive calls. Rule as the data show it: active = GI50 up to about 1.1 µM and inactive = higher.

Tests used:
Assay in all cases: NCI tumour cell line growth inhibition, 48 h
UACC-257 = system: UACC-257
LOX IMVI = system: LOX IMVI
T47D = system: T47D
SK-MEL-5 = system: SK-MEL-5
SNB-75 = system: SNB-75
U-251 = system: U-251
HCT-116 = system: HCT-116
MDA-MB-435 = system: MDA-MB-435
M14 = system: M14
Hs-578T = system: Hs-578T
IGROV-1 = system: IGROV-1
TK-10 = system: TK-10
MOLT-4 = system: MOLT-4
NCI-H460 = system: NCI-H460
786-0 = system: 786-0
A498 = system: A498
DU-145 = system: DU-145
K562 = system: K562
EKVX = system: EKVX
KM12 = system: KM12

Measured: GI50

CCCC(=O)OCC(COC(=O)CCC)OC(=O)CCC [TRIBUTYRIN]
inactive: UACC-257 42.2 µM | LOX IMVI 82 µM | T47D > 100 µM | SK-MEL-5 41.8 µM | SNB-75 36.7 µM | U-251 53 µM | HCT-116 48.8 µM | MDA-MB-435 85.7 µM | M14 58.5 µM | Hs-578T 57.9 µM | IGROV-1 > 100 µM | TK-10 27.3 µM | MOLT-4 73.5 µM | NCI-H460 99.8 µM | 786-0 > 100 µM | A498 > 100 µM | DU-145 29.9 µM | K562 64.7 µM | EKVX > 100 µM | KM12 > 100 µM

O=c1c2cnccc2cc2c3ccccc3ccn12
inactive: UACC-257 > 100 µM | LOX IMVI 18.9 µM | T47D 32.4 µM | SK-MEL-5 46.1 µM | SNB-75 61 µM | U-251 68.4 µM | HCT-116 31.8 µM | MDA-MB-435 97.3 µM | M14 > 100 µM | Hs-578T 71.8 µM | IGROV-1 6.15 µM | TK-10 24.3 µM | MOLT-4 5.21 µM | NCI-H460 5.78 µM | 786-0 84.7 µM | A498 > 100 µM | DU-145 > 100 µM | K562 37.9 µM | EKVX 3.63 µM | KM12 5.64 µM

COc1cc2c(cc1C)NC(=O)/C2=C/c1c(Cl)n(-c2ccccc2)c2ccccc12
inactive: UACC-257 20.5 µM | LOX IMVI 7.33 µM | T47D 4.54 µM | SK-MEL-5 10.5 µM | SNB-75 65 µM | U-251 16.1 µM | HCT-116 13.4 µM | MDA-MB-435 15.1 µM | M14 27.4 µM | Hs-578T 20 µM | IGROV-1 34.4 µM | TK-10 28.9 µM | MOLT-4 4.82 µM | NCI-H460 9.59 µM | 786-0 15.3 µM | A498 32.8 µM | DU-145 31.8 µM | K562 6.46 µM | EKVX 17.5 µM | KM12 7.31 µM
